According to PubChem BioAssay (NCI):
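How tested: cells in 96-well plates exposed to compound for 48 hours at five concentrations. TGI: total growth inhibition.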

What was measured:
Experiment in all cases: DTP human tumour cell line panel, 48 h
CCRF-CEM leukemia = system: CCRF-CEM leukemia
CAKI-1 renal = system: CAKI-1 renal
A549 NSCLC = system: A549 NSCLC
HCT-15 colon = system: HCT-15 colon
A498 renal = system: A498 renal
U251 CNS = system: U251 CNS
SW-620 colon = system: SW-620 colon
UO-31 renal = system: UO-31 renal
RXF 393 renal = system: RXF 393 renal
ACHN renal = system: ACHN renal
SF-539 CNS = system: SF-539 CNS
M14 melanoma = system: M14 melanoma
SF-295 CNS = system: SF-295 CNS
HOP-92 NSCLC = system: HOP-92 NSCLC
NCI-H226 lung = system: NCI-H226 lung
HCT-116 colon = system: HCT-116 colon
HS 578T breast = system: HS 578T breast
OVCAR-4 ovarian = system: OVCAR-4 ovarian
IGROV1 ovarian = system: IGROV1 ovarian
NCI-H460 lung = system: NCI-H460 lung
SK-OV-3 ovarian = system: SK-OV-3 ovarian
SK-MEL-2 melanoma = system: SK-MEL-2 melanoma
T-47D breast = system: T-47D breast
HOP-62 NSCLC = system: HOP-62 NSCLC
K-562 leukemia = system: K-562 leukemia
786-0 renal = system: 786-0 renal
MDA-MB-435 = system: MDA-MB-435
MCF7 breast = system: MCF7 breast
HL-60(TB) leukemia = system: HL-60(TB) leukemia
SNB-75 CNS = system: SNB-75 CNS
NCI-H522 lung = system: NCI-H522 lung
KM12 colon = system: KM12 colon
PC-3 prostate = system: PC-3 prostate
HCC-2998 colon = system: HCC-2998 colon
MDA-MB-231 breast = system: MDA-MB-231 breast
MOLT-4 leukemia = system: MOLT-4 leukemia
NCI-H23 lung = system: NCI-H23 lung
SNB-19 CNS = system: SNB-19 CNS
DU-145 prostate = system: DU-145 prostate
OVCAR-3 ovarian = system: OVCAR-3 ovarian
LOX IMVI melanoma = system: LOX IMVI melanoma
OVCAR-8 ovarian = system: OVCAR-8 ovarian
HT29 colon = system: HT29 colon
SF-268 CNS = system: SF-268 CNS
SK-MEL-5 melanoma = system: SK-MEL-5 melanoma
NCI/ADR-RES ovarian = system: NCI/ADR-RES ovarian
COLO 205 colon = system: COLO 205 colon
OVCAR-5 ovarian = system: OVCAR-5 ovarian
BT-549 breast = system: BT-549 breast
MDA-N = system: MDA-N
TK-10 renal = system: TK-10 renal
MALME-3M melanoma = system: MALME-3M melanoma
SK-MEL-28 melanoma = system: SK-MEL-28 melanoma
UACC-257 melanoma = system: UACC-257 melanoma
UACC-62 melanoma = system: UACC-62 melanoma
SN12C renal = system: SN12C renal
EKVX NSCLC = system: EKVX NSCLC

Compound: CC1CN=C(c2ccc(CN3CCC(CCCC4CCN(Cc5ccc(C6=NCC(C)N6)cc5)CC4)CC3)cc2)N1 (configuration not stated)
- TGI (CCRF-CEM leukemia): 67.4 µM
- TGI (CAKI-1 renal): > 100 µM
- TGI (A549 NSCLC): > 100 µM
- TGI (HCT-15 colon): > 100 µM
- TGI (A498 renal): > 100 µM
- TGI (U251 CNS): > 100 µM
- TGI (SW-620 colon): > 100 µM
- TGI (UO-31 renal): > 100 µM
- TGI (RXF 393 renal): > 100 µM
- TGI (ACHN renal): > 100 µM
- TGI (SF-539 CNS): > 100 µM
- TGI (M14 melanoma): > 100 µM
- TGI (SF-295 CNS): > 100 µM
- TGI (HOP-92 NSCLC): > 100 µM
- TGI (NCI-H226 lung): > 100 µM
- TGI (HCT-116 colon): > 100 µM
- TGI (HS 578T breast): > 100 µM
- TGI (OVCAR-4 ovarian): 57.1 µM
- TGI (IGROV1 ovarian): > 100 µM
- TGI (NCI-H460 lung): 36.8 µM
- TGI (SK-OV-3 ovarian): > 100 µM
- TGI (SK-MEL-2 melanoma): 52.3 µM
- TGI (T-47D breast): > 100 µM
- TGI (HOP-62 NSCLC): > 100 µM
- TGI (K-562 leukemia): > 100 µM
- TGI (786-0 renal): > 100 µM
- TGI (MDA-MB-435): 36.7 µM
- TGI (MCF7 breast): 50.3 µM
- TGI (HL-60(TB) leukemia): > 100 µM
- TGI (SNB-75 CNS): 87.6 µM
- TGI (NCI-H522 lung): 70.3 µM
- TGI (KM12 colon): 40 µM
- TGI (PC-3 prostate): > 100 µM
- TGI (HCC-2998 colon): 28.7 µM
- TGI (MDA-MB-231 breast): 59.7 µM
- TGI (MOLT-4 leukemia): 50.1 µM
- TGI (NCI-H23 lung): > 100 µM
- TGI (SNB-19 CNS): 71.5 µM
- TGI (DU-145 prostate): > 100 µM
- TGI (OVCAR-3 ovarian): > 100 µM
- TGI (LOX IMVI melanoma): > 100 µM
- TGI (OVCAR-8 ovarian): > 100 µM
- TGI (HT29 colon): > 100 µM
- TGI (SF-268 CNS): > 100 µM
- TGI (SK-MEL-5 melanoma): > 100 µM
- TGI (NCI/ADR-RES ovarian): > 100 µM
- TGI (COLO 205 colon): 33 µM
- TGI (OVCAR-5 ovarian): 63 µM
- TGI (BT-549 breast): > 100 µM
- TGI (MDA-N): 38.8 µM
- TGI (TK-10 renal): > 100 µM
- TGI (MALME-3M melanoma): > 100 µM
- TGI (SK-MEL-28 melanoma): > 100 µM
- TGI (UACC-257 melanoma): 45.9 µM
- TGI (UACC-62 melanoma): > 100 µM
- TGI (SN12C renal): > 100 µM
- TGI (EKVX NSCLC): 92 µM

Compound: NS(=O)(=O)c1ccc(NCc2nc3ccccc3[nH]2)cc1
- TGI (CAKI-1 renal): > 100 µM
- TGI (A549 NSCLC): > 100 µM
- TGI (HCT-15 colon): > 100 µM
- TGI (A498 renal): > 100 µM
- TGI (U251 CNS): > 100 µM
- TGI (UO-31 renal): > 100 µM
- TGI (RXF 393 renal): > 100 µM
- TGI (ACHN renal): > 100 µM
- TGI (SF-539 CNS): > 100 µM
- TGI (M14 melanoma): > 100 µM
- TGI (SF-295 CNS): > 100 µM
- TGI (HOP-92 NSCLC): > 100 µM
- TGI (NCI-H226 lung): > 100 µM
- TGI (HCT-116 colon): > 100 µM
- TGI (HS 578T breast): > 100 µM
- TGI (OVCAR-4 ovarian): > 100 µM
- TGI (IGROV1 ovarian): > 100 µM
- TGI (NCI-H460 lung): > 100 µM
- TGI (SK-OV-3 ovarian): > 100 µM
- TGI (SK-MEL-2 melanoma): > 100 µM
- TGI (T-47D breast): > 100 µM
- TGI (HOP-62 NSCLC): > 100 µM
- TGI (786-0 renal): > 100 µM
- TGI (MDA-MB-435): > 100 µM
- TGI (MCF7 breast): > 100 µM
- TGI (SNB-75 CNS): > 100 µM
- TGI (NCI-H522 lung): > 100 µM
- TGI (KM12 colon): > 100 µM
- TGI (PC-3 prostate): > 100 µM
- TGI (MDA-MB-231 breast): > 100 µM
- TGI (NCI-H23 lung): > 100 µM
- TGI (SNB-19 CNS): > 100 µM
- TGI (DU-145 prostate): > 100 µM
- TGI (OVCAR-3 ovarian): > 100 µM
- TGI (LOX IMVI melanoma): > 100 µM
- TGI (OVCAR-8 ovarian): > 100 µM
- TGI (HT29 colon): > 100 µM
- TGI (SF-268 CNS): > 100 µM
- TGI (SK-MEL-5 melanoma): > 100 µM
- TGI (NCI/ADR-RES ovarian): > 100 µM
- TGI (COLO 205 colon): > 100 µM
- TGI (OVCAR-5 ovarian): > 100 µM
- TGI (BT-549 breast): > 100 µM
- TGI (MDA-N): > 100 µM
- TGI (TK-10 renal): > 100 µM
- TGI (MALME-3M melanoma): > 100 µM
- TGI (UACC-257 melanoma): > 100 µM
- TGI (UACC-62 melanoma): > 100 µM
- TGI (SN12C renal): > 100 µM
- TGI (EKVX NSCLC): > 100 µM
